According to patent US11351218B2, “Composition for preventing or treating glioblastoma comprising Platycodon grandiflorum A. De Candolle, Scutellaria baicalensis, Phellodendron amurense Ruprecht or Rubus coreanus” (University-Industry Cooperation Group of Kyung Hee …, priority 2019, dated 2022):

Tests used:
p-ERK = test: Immunoblot of ERK phosphorylation, U373MG cells; format: cell-based, human; conditions: 50 μM pre-incubation 30 minutes, then PD 10 μM 24 hours
Description: FIGS. 10A to 10D show the results that PD-mediated autophagy inhibition is independent of mTOR and MAPK signaling pathways. FIGS. 10A to 10C show the results in which cells were treated with PD (0 μM, 0.5 μM, 1 μM, 5 μM, and 10 μM) for 24 hours. The immunoblot analyses for p-ULK1 (Ser757), ULK1, p-S6K (Thr389), p-AKT (Ser473), ERK2, P-ERK, p-JNK1, Beclin, and ATG7 were performed using lysates from GBMs. […] Total protein extracts were analyzed by immunoblot analyses for p-ERK, LC3B, and SQSTM1. GAPDH was used as an internal control.
(§1) Cells treated with the concentrations and materials described in FIGS. 1-3B, 7, 8, 10, 13, 16, 18, and 20 were lysed in buffer containing 20 mM Tris-HCl (pH 7.5), 150 mM NaCl, 1 mM EDTA, 1 mM Na2EDTA, 1 mM EGTA, 1% NP-40, 1% sodium deoxycholate, 1 mM Na3VO4, 1 mM MPI, 1 mM PMSF, and PI cocktails for 15 to 20 minutes on ice. Cell lysates were separated by SDS-PAGE and transferred to nitrocellulose membranes. […] The protein bands were detected with ECL western Blotting Substrate (Thermo Fisher Scientific, Waltham, Mass., USA).
Previous studies have shown that PD enhances autophagy via mTOR/MAPK pathway. […] It is known that mTORC1 activation, measured by S6K phosphorylation, inhibits autophagy initiation by phosphorylating the ULK1 (Ser 757). […]

LC3B and SQSTM1/p62 = test: Immunoblot of autophagy-related proteins (LC3B, SQSTM1/p62) in U373MG cells; format: cell-based, human; conditions: 50 μM pre-incubation 30 minutes, then PD 10 μM 24 hours
Description: The effects of 26 kinds of herbal medicines, which influence the expression of autophagy-related proteins (LC3B and SQSTM1/p62) in total cell lysates from U87MG and U373MG cells, […] GAPDH was used as a loading control.
The human glioma cell lines, U87MG and U373MG, were cultured respectively in RPMI-1640 (Welgene) and DMEM (Welgene, Daegu, Korea) supplemented with 10% fetal bovine serum (FBS, JR Scientific) and 1% antibiotics (Ab, Welgene). All cultures were maintained at 37° C. in a humidified incubator containing 5% CO2.
as §1
To discover novel autophagy inhibitors, 26 herbal medicines were screened by western blot analysis. […] Therefore, the effect of each herbal medicine on the change in the p62 level was evaluated, given that a rise in the amount of p62 is related to the inhibition of autophaic flux.

COc1cccc(-c2cc(=O)c3ccccc3o2)c1N [PD98095, reference compound]
phosphorylation of ERK (p-ERK): effectively inhibited | levels of LC3B-II and p62 (LC3B and SQSTM1/p62): did not alter
